Assay results: publication PMC10397409, “The action of physiological and synthetic steroids on the calcium channel CatSper in human sperm” (Frontiers in Cell and Developmental Biology, 2023)
Read-outs that look alike come from different tables or passages of the source.

How the values were obtained:
Format in all cases: cell-based
CatSper [1] = target: T1, CatSper (Homo sapiens, UniProt Q7RTX7+Q86XQ3+Q8NEC5+Q96P56); assay: Inhibition of P4-induced Ca2+ influx in human sperm (screen 2 inhibitors)
T1 construct: Motile spermatozoa were selected by a ‘swim-up’ procedure; endogenous in cells; host or cells: motile human spermatozoa (swim-up) from healthy donors
Method: (§1) Briefly, motile spermatozoa were selected by swim-up and labeled with the fluorescent calcium indicator Fluo-4 a.m. to image changes in [Ca^2+]i. After centrifugation to remove excess dye, Fluo-4 AM loaded cells were distributed in a 384-wells plate to obtain ∼125,000 cells/well. After measuring basal fluorescence, a first injection of compounds was performed in order to evaluate their effect on [Ca^2+]i alone. This first screen is therefore considered as a screen to search for ‘activators’. Fluorescence was recorded for 12 min during which sperm cells were continuously exposed to compounds. P4 or PGE1 were then added in the same wells to evaluate whether the tested compounds can reduce the ligand-induced activation of CatSper. This second screen was therefore considered to be a search for CatSper ‘inhibitors’.
(§2) Human semen samples were collected from healthy donors by masturbation after a recommended sexual abstinence period of minimum 2 days. Semen samples were allowed to liquefy at 37°C for 15–30 min. Motile spermatozoa were selected by a ‘swim-up’ procedure as previously described ([Strünker et al., 2011]). Briefly, 1 mL of semen was deposited in a 45°-inclined 50 mL Falcon tube with 4 mL of Human Tubular Fluid (HTF) medium containing: 93.8 mM NaCl, 4.7 mM KCl, 0.2 mM MgSO4, 0.37 mM KH2PO4, 2.04 mM CaCl2, 20.98 mM HEPES, 2.78 mM glucose, 21.4 mM Na-lactate, 4 mM NaHCO3, 0.33 mM Na-pyruvate, and the pH was adjusted to 7.35. Motile sperm were allowed to swim at 37°C for 1 hour. The supernatant was collected in 15 mL Falcon tubes and washed twice by centrifugation at 700 x g for 20 min. Sperm were supplemented with 3 mg/mL HSA. Written informed consent was obtained from all donors prior to donation and approved by the Cantonal Ethics Committee of the State of Geneva (CCER #14-147).
(§3) Cells were loaded with the fluorescent Ca^2+ indicator Fluo-4 AM at a final concentration of 2.5 µM for 30 min at 37°C. Excess dye was washed via centrifugation at 700 x g for 20 min and sperm were resuspended in HTF medium to obtain a final concentration of 6.25 x 10^6 cells/mL. 20 μL of cells (corresponding to ∼125,000 cells) loaded with Fluo-4 a.m. were dispensed in a 384-wells plate (Corning, NY, United States) to allow fluorescence measurement. The dye was excited at 480 nm, and emission was recorded at 530 nm. The change in [Ca^2+]i was assessed simultaneously in all wells using a Functional Drug Screening System (FDSS/μCELL) (Hamamatsu Phototonics K.K., Yokohama, Japan) at 37°C. Basal fluorescence was first measured for 30 s. […] P4 and PGE1 were tested at a near-saturating concentration in the HTS in order to evaluate a potential additive or synergistic effect induced by the compounds. Non-specific CatSper inhibitor MDL 12330A was used as a negative control at final concentration of 20 µM while DMSO was used as a vehicle control. For alkalization-induced Ca^2+ measurement, NH4Cl was used as a positive control at a final concentration of 10 mM. Fluorescence was recorded for a total of 16.5 min: 30 s before injection, 12 min after the first injection of the tested compounds, and 4 min after the second injection of either P4 or PGE1. The Prestwick library was tested in technical duplicate. Ca^2+ response curves were normalized using the following formula F−F0/F0×100 , where F 0 is the average of the basal fluorescence prior to the addition of the compound of interest and F corresponds to the fluorescence value at each time point. The ∆F/F0 of the vehicle control (DMSO) was subtracted from all the other values to adjust for dilution and pipetting artifacts. The values of all compounds were normalized to their respective controls.

CatSper [2] = target: T1, CatSper; assay: Steroid-induced increase in [Ca2+]i in human sperm (Fluo-4 HTS assay, screen 1 activators); conditions: for Emax: read-out: Max amplitude (%) (± SD)
Method: as §1
Human semen samples were collected from healthy donors by masturbation after a recommended sexual abstinence period of minimum 2 days. Semen samples were allowed to liquefy at 37°C for 15–30 min. […] Motile sperm were allowed to swim at 37°C for 1 hour. The supernatant was collected in 15 mL Falcon tubes and washed twice by centrifugation at 700 x g for 20 min. Sperm were supplemented with 3 mg/mL HSA.
as §3, with “20” for “Cells were loaded with the fluorescent Ca^2+ indicator Fluo-4 AM at a final concentration of 2.5 µM for 30 min at 37°C. Excess dye was washed via centrifugation at 700 x g for 20 min and sperm were resuspended in HTF medium to obtain a final concentration of 6.25 x 10^6 cells/mL. 20”, “Non-specific CatSper inhibitor MDL 12330A was used as a negative control at final concentration of 20 µM while DMSO was used as a vehicle control.” left out, “Fluorescence was recorded for a total of 16.5 min: 30 s before injection, 12 min after the first injection of the tested compounds, and 4 min after the second injection of either P4 or PGE1.” left out
Data are shown as mean ± standard deviation (SD) with “n” referring to the number of independent experiments performed using sperm samples from ≥3 different donors. Statistical analysis and fitting of dose-response relations were performed using GraphPad Prism 8.1.1 (Prism, La Jolla, United States). To generate sigmoidal curves, the concentrations were converted to their respective log values, and the data were normalized using the following formula: 100⋅x/Fmax , where Fmax is the maximum value of the positive control. A four-parameter Hill equation with a variable Hill coefficient was fitted to generate the EC02, EC50, and IC50. Statistical significance between control and treated conditions was evaluated using a one-way analysis of variance (ANOVA), followed by Dunnett´s test. A p-value <0.05 was considered significant.

CatSper [3] = target: T1, CatSper; assay: Inhibition of PGE1-induced Ca2+ influx in human sperm (screen 2 inhibitors)
Method: as §1, §2, §3

[4] = Mean IC50 (P4) µM (±SD), P4-induced response, pooled from 3 independent experiments
[5] = EC50 (±SD), increase in [Ca2+]i, dose-response 90 µM to 0.3 nM
[6] = Mean EC50 µM (±SD), pooled from 3 independent experiments
[7] = maximal amplitude of steroid-induced [Ca2+]i increase, relative to P4, 3 independent experiments
[8] = P4-induced response, pooled from 3 independent experiments, read-out: Mean IC50 (P4) µM (±SD)
[9] = pooled from 3 independent experiments, read-out: Mean EC50 µM (±SD)

CC(=O)O[C@H]1CC[C@@]2(C)C(=CC[C@@H]3[C@@H]2CC[C@]2(C)C(=O)CC[C@@H]32)C1 [Dehydroisoandosterone 3-acetate (DHEA), Dehydroisoandosterone 3-acetate]
Max P4 inhibition (%) (± SD) (CatSper [1]; 3 independent experiments): 82 (±6) % | IC50 (CatSper [1]; [4]): 1.69 µM | EC02 compared with reported maximum concentration in blood serum (CatSper [2]): EC02 below the reported maximum concentration found in blood serum | EC50 (CatSper [2]; [5]): 0.593 µM | EC50 (CatSper [2]; [6]): 0.584 µM | Emax (CatSper [2]): 77% | IC50 (CatSper [3]): 3.7 µM

CC(=O)[C@H]1CC[C@H]2[C@@H]3C=CC4=CC(=O)CC[C@@]4(C)[C@@H]3CC[C@]12C [Dydrogesterone]
Max P4 inhibition (%) (± SD) (CatSper [1]; 3 independent experiments): 94 (±4) % | IC50 (CatSper [1]; IC50 (±SD), inhibition of P4-induced Ca2+ response, dose-response 90 µM to 0.3 nM): 0.245 µM | IC50 (CatSper [1]; [4]): 0.24 µM | EC02 compared with reported maximum concentration in blood serum (CatSper [2]): EC02 below the reported maximum concentration found in blood serum | effective concentrations as low as (dose-dependent increase in [Ca2+]i) (CatSper [2]): 10 nM | EC50 (CatSper [2]; [5]): 0.13 µM | EC50 (CatSper [2]; [6]): 0.104 µM | Emax (CatSper [2]; [7]): 84% | IC50 (CatSper [3]): 44.8 µM

C[C@]12CC[C@@H](O)C[C@@H]1CC[C@@H]1[C@@H]2CC[C@]2(C)C(=O)CC[C@@H]12 [androsterone]
Max P4 inhibition (%) (± SD) (CatSper [1]; 3 independent experiments): 61 (±6) % | IC50 (CatSper [1]; [4]): 2.11 µM | EC50 (CatSper [2]; [6]): 1.02 µM | Emax (CatSper [2]): 70% | IC50 (CatSper [3]): 5.38 µM

CCCC1O[C@@H]2C[C@H]3[C@@H]4CCC5=CC(=O)C=C[C@]5(C)[C@H]4[C@@H](O)C[C@]3(C)[C@]2(C(=O)CO)O1 (stereo partly drawn) [budesonide]
Max P4 inhibition (%) (± SD) (CatSper [1]; 3 independent experiments): 3 (±8) % | Emax (CatSper [2]; [7]): 7% | IC50 (CatSper [3]; PGE1-induced response, pooled from 3 independent experiments, read-out: Mean IC50 (PGE1) µM (±SD)): > 100 µM

C#C[C@]1(O)CC[C@H]2[C@@H]3CCC4=CC(=O)CC[C@]4(C)[C@H]3CC[C@@]21C [ethisterone]
Max P4 inhibition (%) (± SD) (CatSper [1]; 3 independent experiments): 10 (±9) % | IC50 (CatSper [1]; [8]): 5.13 µM | Emax (CatSper [2]): 8%

C#C[C@]1(O)CC[C@H]2[C@@H]3CCc4cc(OC)ccc4[C@H]3CC[C@@]21C [ethynylestradiol 3-methyl ether]
Max P4 inhibition (%) (± SD) (CatSper [1]; 3 independent experiments): 4 (±3) % | Emax (CatSper [2]; [7]): 9%

C=C1C[C@@H]2[C@H](CC[C@]3(C)C(=O)CC[C@@H]23)[C@@]2(C)C=CC(=O)C=C12 [exemestane]
Max P4 inhibition (%) (± SD) (CatSper [1]): 56 (±2) % | IC50 (CatSper [1]; [8]): 0.309 µM | EC50 (CatSper [2]; [9]): 0.557 µM | Emax (CatSper [2]): 63%

CC(=O)[C@@]1(O)CC[C@H]2[C@@H]3C[C@H](C)C4=CC(=O)C=C[C@]4(C)[C@@]3(F)[C@@H](O)C[C@@]21C [fluorometholone]
Max P4 inhibition (%) (± SD) (CatSper [1]; 3 independent experiments): 29 (±12) % | IC50 (CatSper [1]; [8]): 6.51 µM | Emax (CatSper [2]; [7]): 42% | EC50 (CatSper [2]; [9]): 0.702 µM

C[C@]12CCC(=O)C(O)=C1CC[C@@H]1[C@@H]2CC[C@]2(C)C(=O)CC[C@@H]12 [formestane]
Max P4 inhibition (%) (± SD) (CatSper [1]; 3 independent experiments): 70 (±8) % | IC50 (CatSper [1]; [4]): 1.22 µM | EC50 (CatSper [2]; [6]): 0.353 µM | Emax (CatSper [2]): 71%

C[C@]12CC[C@@H]3c4ccc(O)cc4C[C@@H](CCCCCCCCC[S+]([O-])CCCC(F)(F)C(F)(F)F)[C@H]3[C@@H]1CC[C@@H]2O (stereo partly drawn) [fulvestrant]
Max P4 inhibition (%) (± SD) (CatSper [1]; 3 independent experiments): 22 (±6) % | IC50 (CatSper [1]; [8]): 6.95 µM | Emax (CatSper [2]; [7]): 28% | EC50 (CatSper [2]; [9]): 2.24 µM

C#C[C@]1(O)CC[C@H]2[C@@H]3CCC4=CC(=O)CCC4=C3C=C[C@@]21CC [gestrinone]
Max P4 inhibition (%) (± SD) (CatSper [1]; 3 independent experiments): 11 (±21) % | IC50 (CatSper [1]; [4]): 33.6 µM | Emax (CatSper [2]): 2%

C[C@H](CCC(=O)O)[C@H]1CC[C@H]2[C@@H]3CC[C@@H]4C[C@H](O)CC[C@]4(C)[C@H]3CC[C@]12C [lithocholic acid]
Max P4 inhibition (%) (± SD) (CatSper [1]): 32 (±10) % | Emax (CatSper [2]): 59%

CC(=O)O[C@]1(C(C)=O)CC[C@H]2[C@@H]3C=C(C)C4=CC(=O)CC[C@]4(C)[C@H]3CC[C@@]21C [megestrol acetate]
Max P4 inhibition (%) (± SD) (CatSper [1]; 3 independent experiments): -4 (±11) % | Emax (CatSper [2]; [7]): 3%

CC#C[C@]1(O)CC[C@H]2[C@@H]3CCC4=CC(=O)CCC4=C3[C@@H](c3ccc(N(C)C)cc3)C[C@@]21C [mifepristone]
Max P4 inhibition (%) (± SD) (CatSper [1]): 25 (±25) % | IC50 (CatSper [1]; [8]): 11 µM | EC50 (CatSper [2]; [9]): 13.5 µM | Emax (CatSper [2]): 9%

C#C[C@]1(O)CC[C@H]2[C@@H]3CCC4=CC(=O)CC[C@@H]4[C@H]3CC[C@@]21C [norethindrone]
Max P4 inhibition (%) (± SD) (CatSper [1]): 22 (±5) % | IC50 (CatSper [1]; [8]): 4.35 µM | EC50 (CatSper [2]; [9]): 6.05 µM | Emax (CatSper [2]): 28%

norgestrel-(-)-d
Max P4 inhibition (%) (± SD) (CatSper [1]; 3 independent experiments): 3 (±5) % | IC50 (CatSper [1]; [8]): 75.6 µM | Max amplitude (%) (± SD) (CatSper [2]; [7]): 5 (±3) %
